From PubChem BioAssay AID328 (DTP/NCI, 2004)
“And” between values parts separate entries of the source, which are not always exact repeats. Equal values may be shown once. Inconclusive results and toxic doses are left out.

Tested on: BDF1 mice, P388 leukemia ip, median survival T/C
Test: NCI In Vivo Anticancer Drug Screen. Data for tumor model P388 Leukemia (intraperitoneal) in B6D2F1 (BDF1) mice
Settings: endpoint: median survival time, higher = longer survival
How it was run: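 In tumour-bearing mice, survival after compound treatment is set against the vehicle group and given as a quotient.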

[1] = dose: 25.0 mg/kg/injection, schedule: Q01DX009 (ip), vehicle: saline
[2] = dose: 50.0 mg/kg/injection, schedule: Q01DX009 (ip), vehicle: saline
[3] = dose: 100.0 mg/kg/injection, schedule: Q01DX009 (ip), vehicle: saline
[4] = dose: 15.0 mg/kg/injection, schedule: Q01DX009 (ip), vehicle: saline with Tween-80
[5] = dose: 30.0 mg/kg/injection, schedule: Q01DX009 (ip), vehicle: saline with Tween-80
[6] = dose: 60.0 mg/kg/injection, schedule: Q01DX009 (ip), vehicle: saline with Tween-80
[7] = dose: 12.5 mg/kg/injection, schedule: Q01DX009 (ip), vehicle: Klucel (hydroxypropylcellulose) (HPC)
[8] = dose: 100.0 mg/kg/injection, schedule: Q04DX003 (ip), vehicle: Klucel (hydroxypropylcellulose) (HPC)
[9] = dose: 200.0 mg/kg/injection, schedule: Q04DX003 (ip), vehicle: Klucel (hydroxypropylcellulose) (HPC)
[10] = dose: 400.0 mg/kg/injection, schedule: Q04DX003 (ip), vehicle: Klucel (hydroxypropylcellulose) (HPC)
[11] = dose: 50.0 mg/kg/injection, schedule: Q01DX009 (ip), vehicle: Klucel (hydroxypropylcellulose) (HPC)
[12] = dose: 100.0 mg/kg/injection, schedule: Q01DX009 (ip), vehicle: Klucel (hydroxypropylcellulose) (HPC)
[13] = dose: 400.0 mg/kg/injection, schedule: Q01DX009 (ip), vehicle: Klucel (hydroxypropylcellulose) (HPC)
[14] = dose: 6.25 mg/kg/injection, schedule: Q04DX003 (ip), vehicle: saline
[15] = dose: 12.5 mg/kg/injection, schedule: Q04DX003 (ip), vehicle: saline
[16] = dose: 200.0 mg/kg/injection, schedule: Q01DX009 (ip), vehicle: saline
[17] = dose: 400.0 mg/kg/injection, schedule: Q01DX009 (ip), vehicle: saline
[18] = dose: 100.0 mg/kg/injection, schedule: Q04DX003 (ip), vehicle: saline
[19] = dose: 200.0 mg/kg/injection, schedule: Q04DX003 (ip), vehicle: saline
[20] = dose: 400.0 mg/kg/injection, schedule: Q04DX003 (ip), vehicle: saline
[21] = dose: 50.0 mg/kg/injection, schedule: Q01DX009 (ip), vehicle: saline with Tween-80
[22] = dose: 100.0 mg/kg/injection, schedule: Q01DX009 (ip), vehicle: saline with Tween-80
[23] = dose: 200.0 mg/kg/injection, schedule: Q01DX009 (ip), vehicle: saline with Tween-80
[24] = dose: 25.0 mg/kg/injection, schedule: Q01DX009 (ip), vehicle: Klucel (hydroxypropylcellulose) (HPC)

For `CCCCCCCCCC[N+](C)(C)CC(O)C[N+](C)(C)CCCCCCCCCC`, the T/C (dose: 1.56 mg/kg/injection, schedule: Q01DX009 (ip), vehicle: saline) was 91 % of control and 109 % of control, the T/C (dose: 3.12 mg/kg/injection, schedule: Q01DX009 (ip), vehicle: saline) was 104 % of control and the T/C (dose: 3.13 mg/kg/injection, schedule: Q01DX009 (ip), vehicle: saline) was 100 % of control and 108 % of control. For the same molecule, the T/C (dose: 6.25 mg/kg/injection, schedule: Q01DX009 (ip), vehicle: saline) was 100 % of control and 109 % of control and 120 % of control and the T/C (dose: 12.5 mg/kg/injection, schedule: Q01DX009 (ip), vehicle: saline) was 107 % of control and 109 % of control and 111 % of control.

For `[Cl][Pt+2][Cl].[NH-]CC1(C[NH-])CCC1`, the T/C (dose: 0.4 mg/kg/injection, schedule: Q01DX009 (ip), vehicle: suspension in saline) was 156 % of control, the T/C (dose: 0.79 mg/kg/injection, schedule: Q01DX009 (ip), vehicle: suspension in saline) was 154 % of control and the T/C (dose: 1.56 mg/kg/injection, schedule: Q01DX009 (ip), vehicle: suspension in saline) was 250 % of control. The T/C (dose: 3.12 mg/kg/injection, schedule: Q01DX009 (ip), vehicle: suspension in saline) was 250 % of control, the T/C (dose: 6.25 mg/kg/injection, schedule: Q01DX009 (ip), vehicle: suspension in saline) was 169 % of control and the T/C (dose: 12.5 mg/kg/injection, schedule: Q01DX009 (ip), vehicle: suspension in saline) was 104 % of control.

With `NC(N)=N/N=C/C(Cl)Cl` the T/C [1] was 95 % of control and 100 % of control, the T/C [2] was 104 % of control and the T/C [3] was 100 % of control and 109 % of control.

`O=[N+]([O-])c1ccc(N2CCCCC2)c2c1no[n+]2[O-]` was tested, and the T/C [4] was 88 % of control, the T/C [5] was 93 % of control and the T/C [6] was 95 % of control.

With `N=C(N)c1ccc(/C=C/c2ccc(C(=N)N)cc2)cc1` the T/C [7] was 118 % of control, the T/C (dose: 16.5 mg/kg/injection, schedule: Q01DX009 (ip), vehicle: Klucel (hydroxypropylcellulose) (HPC)) was 116 % of control and 118 % of control and the T/C (dose: 37.5 mg/kg/injection, schedule: Q01DX009 (ip), vehicle: Klucel (hydroxypropylcellulose) (HPC)) was 150 % of control.

For `CCCCNS(=O)(=O)c1ccc(OC)c(N)c1`, the T/C [8] was 95 % of control, the T/C [9] was 100 % of control and the T/C [10] was 100 % of control.

For `CC1(C)C=C(C(Br)c2ccc(Cl)cc2)C(=O)c2ccccc21` (centres undefined), the T/C [11] was 100 % of control, the T/C (dose: 50.0 mg/kg/injection, schedule: Q04DX003 (ip), vehicle: Klucel (hydroxypropylcellulose) (HPC)) was 100 % of control and the T/C [12] was 100 % of control and 105 % of control. The T/C [3] was 160 % of control, the T/C [8] was 90 % of control and the T/C [9] was 100 % of control. The T/C [13] was 95 % of control.

With `CCOC(=O)CCC(C)(c1ccc(O)cc1)c1ccc(O)cc1` the T/C (dose: 50.0 mg/kg/injection, schedule: Q01DX009 (ip), vehicle: gum acacia) was 95 % of control, the T/C (dose: 100.0 mg/kg/injection, schedule: Q01DX009 (ip), vehicle: gum acacia) was 108 % of control and the T/C (dose: 100.0 mg/kg/injection, schedule: Q04DX003 (ip), vehicle: gum acacia) was 104 % of control. The T/C (dose: 200.0 mg/kg/injection, schedule: Q01DX009 (ip), vehicle: gum acacia) was 100 % of control, the T/C (dose: 200.0 mg/kg/injection, schedule: Q04DX003 (ip), vehicle: gum acacia) was 104 % of control and the T/C (dose: 400.0 mg/kg/injection, schedule: Q04DX003 (ip), vehicle: gum acacia) was 104 % of control.

In the case of `CS/C(N)=N/N`, the T/C [14] is reported as 95 % of control and the T/C [15] is reported as 108 % of control.

In the case of `CCOC(=O)C(NC(C)=O)(C(=O)OCC)C(C)C(O)c1ccc(OC)c(OC)c1O` (centres undefined), the T/C [1] is reported as 100 % of control, the T/C [2] is reported as 100 % of control and the T/C [3] is reported as 109 % of control. For the same molecule, the T/C [16] was 122 % of control and the T/C [17] was 100 % of control.

`O[O][Ge]([c]1ccccc1)([c]1ccccc1)[c]1ccccc1` was tested, and the T/C (dose: 100.0 mg/kg/injection, schedule: Q01DX001 (ip), vehicle: Klucel (hydroxypropylcellulose) (HPC)) was 100 % of control, the T/C (dose: 200.0 mg/kg/injection, schedule: Q01DX001 (ip), vehicle: Klucel (hydroxypropylcellulose) (HPC)) was 100 % of control and the T/C (dose: 400.0 mg/kg/injection, schedule: Q01DX001 (ip), vehicle: Klucel (hydroxypropylcellulose) (HPC)) was 100 % of control.

`CC1CCC2(C)CCC3(C)C(=CCC4C5(C)CCC(OC(=O)c6ccccc6)C(C)(C)C5CCC43C)C2C1C` (centres undefined) was tested, and the T/C (dose: 75.0 mg/kg/injection, schedule: Q04DX003 (ip), vehicle: saline with Tween-80) was 100 % of control, the T/C (dose: 150.0 mg/kg/injection, schedule: Q04DX003 (ip), vehicle: saline with Tween-80) was 100 % of control and the T/C (dose: 300.0 mg/kg/injection, schedule: Q04DX003 (ip), vehicle: saline with Tween-80) was 105 % of control.

In the case of `CC(=O)Nc1ccc(C(=O)O)c([N+](=O)[O-])c1`, the T/C [1] is reported as 86 % of control, the T/C [2] is reported as 92 % of control and 106 % of control and the T/C [3] is reported as 91 % of control and 100 % of control. The T/C [18] was 98 % of control, the T/C [16] was 106 % of control and the T/C [19] was 108 % of control. For the same molecule, the T/C [17] was 101 % of control and the T/C [20] was 96 % of control.

For `O=C1c2cccc(O)c2C(=O)c2c(OC3OC(CO)C(OC4OC(CO)C(O)C(O)C4O)C(O)C3O)cccc21` (centres undefined), the T/C [18] was 103 % of control, the T/C [19] was 119 % of control and the T/C [20] was 112 % of control.

`c1cc[n+]2c(c1)-c1cccc[n+]1CC2` was tested, and the T/C (dose: 3.13 mg/kg/injection, schedule: Q04DX003 (ip), vehicle: saline) was 100 % of control, the T/C [14] was 95 % of control and the T/C [15] was 100 % of control.

`CCOC(=O)c1ccccc1S(=O)(=O)c1ccccc1C(=O)OCC` was tested, and the T/C [21] was 106 % of control, the T/C [22] was 100 % of control and the T/C [23] was 112 % of control.

With `O=S1(=O)CCCCO1` the T/C (dose: 11.0 mg/kg/injection, schedule: Q01DX009 (ip), vehicle: saline) was 90 % of control, the T/C (dose: 16.5 mg/kg/injection, schedule: Q01DX009 (ip), vehicle: saline) was 100 % of control and the T/C [1] was 109 % of control. For the same molecule, the T/C (dose: 25.0 mg/kg/injection, schedule: Q04DX003 (ip), vehicle: saline) was 95 % of control, the T/C (dose: 37.5 mg/kg/injection, schedule: Q01DX009 (ip), vehicle: saline) was 100 % of control and the T/C (dose: 50.0 mg/kg/injection, schedule: Q04DX003 (ip), vehicle: saline) was 100 % of control. For the same molecule, the T/C [18] was 104 % of control.

For `CCOC(=O)Cc1csc(=NC(=O)c2ccccc2)n1N`, the T/C [21] was 108 % of control, the T/C [22] was 115 % of control and the T/C [23] was 101 % of control.

With `N#CCCN1CCCCCC1` the T/C [4] was 104 % of control, the T/C [5] was 89 % of control and the T/C [6] was 98 % of control.

With `Nc1nc(CCl)nc(Nc2ccccc2)n1` the T/C [7] was 100 % of control, the T/C [24] was 98 % of control and the T/C [11] was 102 % of control. For the same molecule, the T/C [12] was 100 % of control.

With `CCOC(=O)C(Cc1ccc(N(CCCl)CCCl)cc1)NC(=O)C(Cc1ccccc1)NC=O` (centres undefined) the T/C (dose: 12.5 mg/kg/injection, schedule: Q04DX003 (ip), vehicle: saline with Tween-80) was 118 % of control, the T/C [21] was 168 % of control and the T/C (dose: 50.0 mg/kg/injection, schedule: Q04DX003 (ip), vehicle: saline with Tween-80) was 172 % of control. The T/C [22] was 90 % of control, the T/C (dose: 132.0 mg/kg/injection, schedule: Q04DX003 (ip), vehicle: saline with Tween-80) was 227 % of control and the T/C (dose: 133.0 mg/kg/injection, schedule: Q04DX003 (ip), vehicle: saline with Tween-80) was 200 % of control. The T/C (dose: 200.0 mg/kg/injection, schedule: Q04DX003 (ip), vehicle: saline with Tween-80) was 254 % of control and 215 % of control.

For `Nc1c(Br)cc(Br)cc1Br`, the T/C (dose: 6.0 mg/kg/injection, schedule: Q01DX009 (ip), vehicle: Klucel (hydroxypropylcellulose) (HPC)) was 110 % of control, the T/C (dose: 12.0 mg/kg/injection, schedule: Q01DX009 (ip), vehicle: Klucel (hydroxypropylcellulose) (HPC)) was 105 % of control and the T/C [24] was 105 % of control. For the same molecule, the T/C [12] was 105 % of control, the T/C [8] was 100 % of control and the T/C (dose: 200.0 mg/kg/injection, schedule: Q01DX009 (ip), vehicle: Klucel (hydroxypropylcellulose) (HPC)) was 100 % of control. For the same molecule, the T/C [9] was 95 % of control, the T/C [13] was 111 % of control and the T/C [10] was 100 % of control.
